Experiments:
Assay type in all cases: in vivo
Pharbitis purpurea = assay: Post-emergence herbicidal activity against PHBPU; settings: Ipomoea purpurea, 504 h, dosage 320 g/ha, rated about 3 weeks after treatment
Experimental: (§1) LOLRI: Lolium rigidum PHBPU: Pharbitis purpurea 2. Post-Emergence Herbicidal Action and Crop Plant Compatibility Seeds of monocotyledonous and dicotyledonous weeds and crop plants are placed in sandy loam in plastic or wood-fiber pots, covered with soil and cultivated in a greenhouse under controlled growth conditions. 2 to 3 weeks after sowing, the test plants are treated at the one-leaf stage. The compounds of the invention, formulated in the form of wettable powders (WP) or as emulsion concentrates (EC), are then sprayed onto the green parts of the plants as aqueous suspension or emulsion with addition of 0.5% additive at a water application rate of 600 l/ha (converted). After the test plants had been kept in the greenhouse under optimum growth conditions for about 3 weeks, the activity of the preparations is rated visually in comparison to untreated controls. For example, 100% activity=the plants have died, 0% activity=like control plants.

Polygonum convolvulus = assay: Post-emergence herbicidal activity against POLCO; settings: Fallopia convolvulus, 504 h, dosage 320 g/ha, rated about 3 weeks after treatment
Method in brief: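 Greenhouse weeds in sandy loam were sprayed at the one-leaf stage, 2–3 weeks after sowing, with WP or EC formulations plus 0.5% additive at 600 l/ha water. About 3 weeks later, damage was rated visually against untreated controls, where 100% means plants dead and 0% means like control.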

Setaria viridis = assay: Post-emergence herbicidal activity against SETVI; settings: Setaria viridis, 504 h, dosage 320 g/ha, rated about 3 weeks after treatment
Experimental: as §1, with “POLCO: Polygonum convolvulus SETVI: Setaria viridis” for “LOLRI: Lolium rigidum PHBPU: Pharbitis purpurea”

Veronica persica [1] = assay: Post-emergence herbicidal activity against VERPE; settings: Veronica persica, 504 h, dosage 320 g/ha
Method in brief: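 Greenhouse plants treated at one-leaf stage, 2–3 weeks after sowing, by spraying WP or EC formulations with 0.5% additive at 600 l/ha water. Visual rating about 3 weeks later versus untreated controls (100% = plants dead, 0% = like controls).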

Alopecurus myosuroides = assay: Post-emergence herbicidal activity against ALOMY; settings: Alopecurus myosuroides, 504 h, dosage 320 g/ha, rated about 3 weeks after treatment
Method in brief: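 Greenhouse-grown plants treated at one-leaf stage, 2 to 3 weeks after sowing, with WP or EC formulations sprayed as aqueous suspension/emulsion plus 0.5% additive at 600 l/ha. Activity rated visually about 3 weeks later versus untreated controls (100% = plants dead, 0% = like control).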

Abutilon theophrasti [2] = assay: Pre-emergence herbicidal activity against ABUTH; settings: dosage 80 g/ha
Text: (§2) 1. Pre-Emergence Herbicidal Action and Crop Plant Compatibility Seeds of monocotyledonous and dicotyledonous weed plants and crop plants are placed in plastic or wood fiber pots and covered with soil. The compounds of the invention, formulated in the form of wettable powders (WP) or as emulsion concentrates (EC), are then applied onto the surface of the covering soil as aqueous suspension or emulsion with addition of 0.5% additive at a water application rate of 600 l/ha (converted). After the treatment, the pots are placed in a greenhouse and kept under good growth conditions for the trial plants. After about 3 weeks, the effect of the preparations is scored visually in comparison with untreated controls as percentages. For example, 100% activity=the plants have died, 0% activity=like control plants. ABUTH: Abutilon theophrasti ALOMY: Alopecurus myosuroides

Echinochloa crus-galli = assay: Post-emergence herbicidal activity against ECHCG; settings: Echinochloa crus-galli, 504 h, dosage 320 g/ha, rated about 3 weeks after treatment
Experimental: as §1, with “ECHCG: Echinochloa crus-galli HORMU: Hordeum murinum” for “LOLRI: Lolium rigidum PHBPU: Pharbitis purpurea”

Viola tricolor = assay: Post-emergence herbicidal activity against VIOTR; settings: Viola tricolor, 504 h, dosage 320 g/ha, rated about 3 weeks after treatment
Experimental: as §1, with “VIOTR: Viola tricolor” for “LOLRI: Lolium rigidum PHBPU: Pharbitis purpurea”

[3] = Post-emergence treatment, summary over harmful plants; settings: 504 h, application rate of 0.32 kg of active substance or less per hectare, read-out: herbicidal action, post-emergence treatment (very good herbicidal activity)
Experimental: 2. Post-Emergence Herbicidal Action and Crop Plant Compatibility
as §1, with “Seeds” for “LOLRI: Lolium rigidum PHBPU: Pharbitis purpurea 2. Post-Emergence Herbicidal Action and Crop Plant Compatibility Seeds”
As shown by the results, compounds according to the invention such as, for example, the compounds No. I-35 and other compounds from the tables (for example I-28, I-38, I-01, I-19, I-36, I-29, I-32, I-11, I-12, I-37, I-06, I-09, I-33, I-34, I-13, I-04, I-26, I-21, I-30, I-05, I-03, I-20, I-27, I-14, I-10, I-23, I-07, I-25, I-02, I-08, I-24, I-41, I-42, I-43, I-44, I-46, I-49, I-54, I-55, I-56) have, when used for post-emergence treatment, very good herbicidal activity (80% to 100% herbicidal action) against harmful plants such as Abutilon theophrasti, Alopecurus myosuroides, Amaranthus retroflexus, Avena fatua, Echinochloa crus-galli, Hordeum murinum, Lolium rigidum, Pharbitis purpurea, Polygonum convolvulus, Setaria viridis, Stellaria media, Veronica persica and Viola tricolor at an application rate of 0.32 kg of active substance or less per hectare.

Avena fatua = assay: Post-emergence herbicidal activity against AVEFA; settings: Avena fatua, 504 h, dosage 320 g/ha, rated about 3 weeks after treatment
Method in brief: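 Greenhouse pots of sandy loam; plants sprayed at one-leaf stage, 2 to 3 weeks after sowing, with WP or EC formulations in water plus 0.5% additive at 600 l/ha. Activity rated visually after about 3 weeks against untreated controls (100% = plants dead, 0% = like control).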

Abutilon theophrasti [4] = assay: Post-emergence herbicidal activity against ABUTH; settings: Abutilon theophrasti, 504 h, dosage 320 g/ha, rated about 3 weeks after treatment
Experimental: as §1, with “ABUTH: Abutilon theophrasti ALOMY: Alopecurus myosuroides” for “LOLRI: Lolium rigidum PHBPU: Pharbitis purpurea”

Stellaria media [5] = assay: Post-emergence herbicidal activity against STEME; settings: Stellaria media, 504 h, dosage 320 g/ha, rated about 3 weeks after treatment
Experimental: as §1, with “STEME: Stellaria media VERPE: Veronica persica” for “LOLRI: Lolium rigidum PHBPU: Pharbitis purpurea”

Veronica persica [6] = assay: Pre-emergence herbicidal activity against VERPE; settings: Veronica persica, 504 h, dosage 80 g/ha
Text: as §2, with “STEME: Stellaria media VERPE: Veronica persica” for “ABUTH: Abutilon theophrasti ALOMY: Alopecurus myosuroides”

Stellaria media [7] = assay: Pre-emergence herbicidal activity against STEME; settings: Stellaria media, 504 h, dosage 80 g/ha
Text: as §2, with “STEME: Stellaria media VERPE: Veronica persica” for “ABUTH: Abutilon theophrasti ALOMY: Alopecurus myosuroides”

| SMILES | pest or weed control at 320 g/ha (Pharbitis purpurea) [%] | pest or weed control at 320 g/ha (Polygonum convolvulus) [%] | pest or weed control at 320 g/ha (Setaria viridis) [%] | pest or weed control at 320 g/ha (Veronica persica [1]) [%] | pest or weed control at 320 g/ha (Alopecurus myosuroides) [%] | Pre-emergence herbicidal activity against ABUTH in % (Abutilon theophrasti [2]) [%] | pest or weed control at 320 g/ha (Echinochloa crus-galli) [%] | pest or weed control at 320 g/ha (Viola tricolor) [%] | pest or weed control at 320 g/ha [3] [%] | pest or weed control at 320 g/ha (Avena fatua) [%] | pest or weed control at 320 g/ha (Abutilon theophrasti [4]) [%] | pest or weed control at 320 g/ha (Stellaria media [5]) [%] | pest or weed control at 80 g/ha (Veronica persica [6]) [%] | pest or weed control at 80 g/ha (Stellaria media [7]) [%] |
| --- | --- | --- | --- | --- | --- | --- | --- | --- | --- | --- | --- | --- | --- | --- |
| COC(=O)[C@H]1C[C@@H](NC(=O)C2(OC)CC(c3cc(Cl)cc(Cl)c3)=NO2)CO1 (relative stereo) [I-02, methyl cis-4-[[3-(3,5-dichlorophenyl)-5-methoxy-4H-isoxazole-5-carbonyl]amino]tetrahydrofuran-2-carboxylate] | 90 | 90 | 80 | 80 | 80 | 100 | 90 | 80 | 80 to 100 | – | – | – | – | – |
| COC(=O)C1=C(NC(=O)C2(C)CC(c3cc(F)cc(F)c3)=NO2)COC1 (stereo not shown) [I-25, methyl 4-[[3-(3,5-difluorophenyl)-5-methyl-4H-isoxazole-5-carbonyl]amino]-2,5-dihydrofuran-3-carboxylate] | 80 | 90 | – | 80 | 100 | – | – | – | 80 to 100 | 100 | 80 | 90 | 100 | 100 |
